Source: article PMC7445743 (Journal of Medicinal Chemistry, 2020)
Where a name gives a salt, the structure may show the parent alone.

Legend:
SYK [1] = biological target: T1, SYK (Homo sapiens, UniProt P43405); conditions: supplement CSV
CAMK2A = CAMK2A (Homo sapiens, UniProt Q9UQM7); conditions: supplement CSV
CAMK1G = CAMK1G (Homo sapiens, UniProt Q96NX5); conditions: supplement CSV
SYK [2] = biological target: T1, SYK; experiment: biochemical; conditions: read-out: Tm shift SYK
[3] = Microsome metabolism (MICs)
[4] = Microsome metabolism (MICs); remark: listed apart in the source
[5] = test system: diet induced obesity mouse model; experiment: OGTT in DIO mice, chronic (14 day) dosing study; assay type: in vivo, male C57Bl/6J mice; conditions: twice daily for 14 days (25 mg/kg)
Description: Upon completion of the OGTT, all animals were singly housed with food provided as above for 2 weeks prior to the onset of the baseline phase of the chronic study. Upon single housing after the OGTT, mice were placed on a reverse-phase light–dark cycle (lights off 09:30–17:30). Following this period, the animals underwent a 5-day baseline phase where they were dosed twice daily with vehicle at approximately 08:45 and 16:45 each day. Toward the end of the baseline phase mice were reallocated to dosing groups (8 animals per group) such that groups within the study were balanced as closely as possible for body weight, food and water intake, and previous treatment. From day 1 onward, mice were dosed orally twice daily with 25 mg/kg 18 formulated in a vehicle of DMSO (10% final volume) and 20% (2-hydroxypropyl)-β-cyclodextrin (90% final volume) on days 1–6 and 1% methyl cellulose at 5 mL/kg on subsequent days or twice daily orally with vehicle alone or subcutaneously with 0.1 mg/kg liraglutide (Bachem) formulated in pH 7.4 phosphate buffer solution. Oral dosing began at approximately 08:45 and 16:45, with subcutaneous dosing at 08:45 only. […] Plasma glucose and insulin data from the OGTTs were analyzed by robust regression with treatment as a factor and bleeding order and day 1 body weight as covariates. […]

PKNB(M.tuberculosis) = biological target: T2, PKNB(M.tuberculosis) (Mycobacterium tuberculosis, UniProt P9WI81); experiment: KINOMEscan; assay type: binding
T2 construct: purchased DiscoverX (Eurofins) KINOMEscan scanMAX; first lines in-house DSF / ADP-Glo
T2 sequence (P9WI81 whole entry): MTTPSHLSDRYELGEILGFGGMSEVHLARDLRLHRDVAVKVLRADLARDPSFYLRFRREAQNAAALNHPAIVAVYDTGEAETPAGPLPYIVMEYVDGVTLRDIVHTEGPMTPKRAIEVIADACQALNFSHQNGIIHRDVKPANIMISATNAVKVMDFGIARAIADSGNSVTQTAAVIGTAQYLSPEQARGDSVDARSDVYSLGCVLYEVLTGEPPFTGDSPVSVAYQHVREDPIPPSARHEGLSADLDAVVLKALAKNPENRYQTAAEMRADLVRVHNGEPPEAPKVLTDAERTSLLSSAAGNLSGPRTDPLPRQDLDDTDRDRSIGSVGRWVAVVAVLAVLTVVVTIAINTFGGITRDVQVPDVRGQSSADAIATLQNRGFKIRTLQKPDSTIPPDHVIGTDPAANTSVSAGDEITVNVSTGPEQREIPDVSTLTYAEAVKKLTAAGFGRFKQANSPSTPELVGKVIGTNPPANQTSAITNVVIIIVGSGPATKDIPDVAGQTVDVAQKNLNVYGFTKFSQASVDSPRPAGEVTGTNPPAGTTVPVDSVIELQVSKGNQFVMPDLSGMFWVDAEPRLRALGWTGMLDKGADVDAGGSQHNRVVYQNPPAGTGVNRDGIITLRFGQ

[6] = Microsome metabolism (MICs); remark: listed apart in the source
[7] = test system: kinase panel (468 Assays Tested); experiment: Pan-kinome selectivity, competitive binding assay (KINOMEscan); conditions: for S-Score(35): 1 μM
[8] = test system: diet induced obesity mouse model; experiment: OGTT in DIO mice, acute dosing study; assay type: in vivo, male C57Bl/6J mice; conditions: single oral dose of 25 or 50 mg/kg 4 h prior to OGTT, vs vehicle
Description: Animals were allocated to dosing groups (6 mice per group) such that groups were balanced as closely as possible for mean body weight. The day prior to the OGTT, all animals were deprived of food (but not water) beginning approximately 16:45. The following morning, the mice were dosed with vehicle or either 10 mg/kg, 25 mg/kg, or 50 mg/kg 18 formulated in a vehicle of DMSO (10% final volume) and 20% (2-hydroxypropyl)-β-cyclodextrin (90% final volume) by the oral route (beginning at 08:45). Four hours after dosing, a blood sample was taken (B1), and 3 min later glucose was administered (2 g/kg orally). Further blood samples were taken 10, 30, 60, and 90 min after glucose administration. Between blood sampling, animals were returned to the home cage with free access to water (but not food). Blood samples (approximately 30 μL) were collected into lithium heparinized tubes (Sarstedt Microvette CB300LH), and plasma was separated by centrifugation to produce a single aliquot of plasma, which was frozen (approximately −80 °C) and subsequently assayed for glucose (in duplicate; Thermoelectron Infinity glucose reagent TR15498) and insulin (single replicate; Alpco mouse ultrasensitive insulin kit 80, INSMSU-E10).

[9] = Hepatocyte metabolism (Heps); assay type: in vitro ADME
in vitro [10] = conditions: human, plasma
NGS mice = experiment: Tolerability study in NGS mice; assay type: in vivo; conditions: 40 mg/kg once daily for 21 days, 50:45:5 PEG400/water/ethanol
in vitro [11] = conditions: rat, plasma
in vitro [12] = conditions: mouse, plasma
PAK4 = PAK4 (Homo sapiens, UniProt O96013); conditions: supplement CSV
Chain of PAK4 (O96013 whole entry): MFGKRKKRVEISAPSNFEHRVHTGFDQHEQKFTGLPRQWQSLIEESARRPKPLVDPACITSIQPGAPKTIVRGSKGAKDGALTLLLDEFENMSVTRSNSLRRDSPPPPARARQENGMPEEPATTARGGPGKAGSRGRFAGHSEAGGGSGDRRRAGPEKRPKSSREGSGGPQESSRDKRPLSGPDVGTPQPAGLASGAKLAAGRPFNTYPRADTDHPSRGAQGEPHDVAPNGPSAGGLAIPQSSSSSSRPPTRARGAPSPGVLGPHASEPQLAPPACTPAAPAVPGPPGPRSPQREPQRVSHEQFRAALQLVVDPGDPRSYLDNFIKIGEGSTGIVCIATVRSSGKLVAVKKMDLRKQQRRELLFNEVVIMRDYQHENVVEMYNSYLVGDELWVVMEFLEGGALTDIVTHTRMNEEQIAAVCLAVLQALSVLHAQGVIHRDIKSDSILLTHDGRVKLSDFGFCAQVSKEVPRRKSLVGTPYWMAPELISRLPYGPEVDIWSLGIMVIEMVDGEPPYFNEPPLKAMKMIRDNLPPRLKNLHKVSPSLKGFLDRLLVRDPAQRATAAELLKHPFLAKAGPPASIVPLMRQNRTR

in vivo = conditions: male, Crl:CD Sprague-Dawley, rat, iv, 2 mg/kg

Chain of CAMK1G (Q96NX5 whole entry): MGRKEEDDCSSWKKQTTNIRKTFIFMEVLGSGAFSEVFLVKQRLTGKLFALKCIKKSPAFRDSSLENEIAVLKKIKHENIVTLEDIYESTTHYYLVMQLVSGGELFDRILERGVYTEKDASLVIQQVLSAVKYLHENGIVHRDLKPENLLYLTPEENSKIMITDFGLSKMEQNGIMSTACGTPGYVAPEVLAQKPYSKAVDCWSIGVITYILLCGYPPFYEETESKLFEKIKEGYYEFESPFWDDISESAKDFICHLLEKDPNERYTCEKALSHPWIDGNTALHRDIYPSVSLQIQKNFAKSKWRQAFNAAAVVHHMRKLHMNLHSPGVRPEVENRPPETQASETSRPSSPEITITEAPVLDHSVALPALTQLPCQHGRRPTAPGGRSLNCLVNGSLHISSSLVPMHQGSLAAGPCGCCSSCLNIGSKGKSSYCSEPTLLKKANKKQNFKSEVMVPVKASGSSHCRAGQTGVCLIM
Chain of CAMK2A (Q9UQM7 whole entry): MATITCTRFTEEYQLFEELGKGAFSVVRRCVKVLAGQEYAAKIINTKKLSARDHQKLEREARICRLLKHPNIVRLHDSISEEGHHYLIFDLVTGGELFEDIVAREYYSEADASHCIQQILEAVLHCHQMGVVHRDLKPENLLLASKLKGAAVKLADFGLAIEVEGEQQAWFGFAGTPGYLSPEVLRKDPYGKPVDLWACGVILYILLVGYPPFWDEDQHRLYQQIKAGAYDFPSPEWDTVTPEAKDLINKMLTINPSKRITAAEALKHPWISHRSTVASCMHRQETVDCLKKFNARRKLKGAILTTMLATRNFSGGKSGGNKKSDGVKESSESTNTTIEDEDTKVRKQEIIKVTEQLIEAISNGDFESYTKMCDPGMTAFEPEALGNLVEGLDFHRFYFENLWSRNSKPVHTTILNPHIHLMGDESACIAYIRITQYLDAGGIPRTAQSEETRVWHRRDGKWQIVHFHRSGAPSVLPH

Compound	SYK Tm (SYK [1])	CAMK2A Tm (CAMK2A)	CAMK1G Tm (CAMK1G)	ΔTm at 10 µM (SYK [2]) [°C]	rat MICs [3] [μL·min^–1·mg^–1]	human MICs [4] [μL·min^–1·mg^–1]	baseline glucose and insulin levels, peak glucose following OGTT [5]	glucose AUCB2 [5]	remaining binding at 1 µM (PKNB(M.tuberculosis)) [%]	mouse MICs [6] [μL·min^–1·mg^–1]	S-Score(35) [7]	Interactions Mapped ([7]; 468 Assays Tested)	glucose control and insulin sensitivity in OGTT [8]	human Heps [9] [μL·min^–1 per 10^6 cells]	fraction unbound (in vitro [10])	tolerability (NGS mice)	fraction unbound (in vitro [11])	fraction unbound (in vitro [12])	PAK4 Tm (PAK4)	clearance (in vivo) [mL/min/kg]
NC(=O)c1cnc(N2CCC[C@@H](N)C2)nc1Nc1cccc(C(F)(F)F)c1 [Compound 7, (R)-2-(3-Aminopiperidin-1-yl)-4-((3-(trifluoromethyl)phenyl)amino)pyrimidine-5-carboxamide Hydrochloride]	6.82 0C	1.17 0C	6.58 0C	6.82	–	–	–	–	–	–	–	–	–	–	–	–	–	–	–	–
CC(C)(C#N)c1cc(Nc2nc(N3CCC[C@H](N)C3)ncc2C(N)=O)cc(C(C)(C)C#N)c1 [Compound 18, (S)-2-(3-Aminopiperidin-1-yl)-4-((3,5-bis(2-cyanopropan-2-yl)phenyl)amino)pyrimidine-5-carboxamide Hydrochloride]	–	–	–	–	< 1	13	reduced baseline glucose and insulin levels, as well as reduced peak glucose levels	no effect	84	15	0.03	23	improved glucose control and increased insulin sensitivity	–	–	–	–	–	–	–
CC(C)c1cc(Nc2nc(N3CCC[C@H](N)C3)ncc2C(N)=O)cc(C(C)C)n1 [Compound 19, (S)-2-(3-Aminopiperidin-1-yl)-4-((2,6-diisopropylpyridin-4-yl)amino)pyrimidine-5-carboxamide]	–	–	16.35 0C	–	3	7	–	–	83	6	0.03	–	–	19	0.11	no observable adverse effects	0.08	0.06	3.31 0C	36.5
